Ends that are not written are not given here.
Key:
[1] = tested on: Lovenox ® Activity in Blood from Patients Treated with Lovenox ®; assay: Neutralizing Lovenox activity in blood from patients treated with Lovenox (anti-Factor Xa assay); type: biochemical, human; settings: for Lovenox ® Neutralized: Peptide 12 μg/ml
How it was run: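 Blood came from consenting volunteers already on Lovenox® therapy. Neutralizing peptides were tested as a dose response from 1–60 μg/ml. Each point is mean ± SD of triplicate analyses on one patient's blood sample.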

[2] = tested on: anti-Factor Xa Activity of the Low Molecular Weight Heparin Lovenox ®; assay: Anti-Factor Xa assay (Stachrom Heparin kit): neutralization of Lovenox in citrate or plasma in vitro; type: biochemical, human; settings: for Lovenox ® Neutralized: Lovenox 0.7 U/ml; for anti-Factor Xa activity of LMWH neutralized: 12 μg/ml, plasma; for anti-LMWH effect in citrate compared with plasma: Table 2A; for Lovenox/LMWH neutralization compared with protamine: low concentrations, in the presence of plasma
How it was run: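 Chromogenic anti-Factor Xa kit run with UFH, enoxaparin (Lovenox) or danaparoid (Orgaran) in 0.32% citrate or citrated plasma from three volunteers. Heparin/ATIII complex formed, peptide added, then Factor Xa and dye substrate; absorbance at 405 nm, inversely proportional to remaining anti-Factor Xa activity.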

[3] = Affinity coelectrophoresis (ACE) of peptide binding to radiolabeled low Mr heparin; parameters: species or system pig; settings: pH 7.0, mean and standard deviation of four assays, read-out: Kd (nM), affinity for low molecular weight heparin
How it was run: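 Trace ¹²⁵I-tyramine end-labelled low-Mr (≦6,000) pig mucosal heparin electrophoresed through 1% agarose lanes containing serially diluted peptides in 50 mM MOPSO/125 mM sodium acetate, pH 7.0, with CHAPS. Heparin mobility read by phosphorimager; retardation coefficients fitted to R=R∞/{1+(Kd/[peptide])^n} to give apparent Kd.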

[4] = blood of Lovenox-treated Patient Number 1
[5] = blood of Lovenox-treated Patient Number 2
[6] = blood of Lovenox-treated Patient Number 3
[7] = blood of Lovenox-treated Patient Number 4
[8] = blood of Lovenox-treated Patient Number 5
[9] = blood of Lovenox-treated Patient Number 8
[10] = blood of Lovenox-treated Patient Number 9
[11] = blood of Lovenox-treated Patient Number 10
[12] = blood of Lovenox-treated Patient Number 11

Row | Substance | Lovenox ® Neutralized [1, 4] | Lovenox ® Neutralized [1, 5] | Lovenox ® Neutralized [1, 6] | Lovenox ® Neutralized [1, 7] | Lovenox ® Neutralized [1, 8] | Lovenox ® Neutralized [1, 9] | Lovenox ® Neutralized [1, 10] | Lovenox ® Neutralized [1, 11] | Lovenox ® Neutralized [1, 12] | rank as neutralizing agent of Lovenox [2] | Lovenox ® Neutralized ([2]; 1 μg/ml Peptide, A Plasma) | Lovenox ® Neutralized ([2]; 1 μg/ml Peptide, B Plasma) | Lovenox ® Neutralized ([2]; 1 μg/ml Peptide, C Plasma) | Lovenox ® Neutralized ([2]; 1 μg/ml Peptide, Citrate) | Lovenox ® Neutralized ([2]; 6 μg/ml Peptide, A Plasma) | Lovenox ® Neutralized ([2]; 6 μg/ml Peptide, B Plasma) | Lovenox ® Neutralized ([2]; 6 μg/ml Peptide, C Plasma) | Lovenox ® Neutralized ([2]; 6 μg/ml Peptide, Citrate) | Lovenox ® Neutralized ([2]; 12 μg/ml Peptide, A Plasma) | Lovenox ® Neutralized ([2]; 12 μg/ml Peptide, B Plasma) | further results
1 | ARKKAAKAARKKAAKAARKKAAKAVLVLVLVL [(ARKKAAKA)3VLVLVLVL] | 0.213 U/ml | 0.252 U/ml | 0.302 U/ml | 0.439 U/ml | 0.265 U/ml | 0.268 U/ml | 0.478 U/ml | 0.436 U/ml | 0.398 U/ml | most effective neutralizing agents | 0.055 ± 0.041 U/ml | 0.035 ± 0.009 U/ml | 0.058 ± 0.054 U/ml | 0.082 ± 0.027 U/ml | 0.292 ± 0.047 U/ml | 0.189 ± 0.066 U/ml | 0.202 ± 0.042 U/ml | 0.288 ± 0.045 U/ml | 0.441 ± 0.058 U/ml | 0.376 ± 0.001 U/ml | effectiveness in neutralizing Lovenox in blood of patients [1]: most consistently effective; Lovenox ® Neutralized ([2]; 12 μg/ml Peptide, C Plasma): 0.371 ± 0.031 U/ml; Lovenox ® Neutralized ([2]; 12 μg/ml Peptide, Citrate): 0.412 ± 0.035 U/ml; anti-Factor Xa activity of LMWH neutralized [2]: about 0.4 U/ml; Lovenox ® Neutralized ([2]; 60 μg/ml Peptide, A Plasma): 0.588 ± 0.027 U/ml; Lovenox ® Neutralized ([2]; 60 μg/ml Peptide, B Plasma): 0.561 ± 0.035 U/ml; Lovenox ® Neutralized ([2]; 60 μg/ml Peptide, C Plasma): 0.532 ± 0.023 U/ml; Lovenox ® Neutralized ([2]; 60 μg/ml Peptide, Citrate): 0.441 ± 0.010 U/ml; Lovenox ® Neutralized ([2]; 120 μg/ml Peptide, A Plasma): 0.575 ± 0.057 U/ml; Lovenox ® Neutralized ([2]; 120 μg/ml Peptide, B Plasma): 0.480 ± 0.035 U/ml; Lovenox ® Neutralized ([2]; 120 μg/ml Peptide, C Plasma): 0.485 ± 0.022 U/ml; Lovenox ® Neutralized ([2]; 120 μg/ml Peptide, Citrate): 0.463 ± 0.029 U/ml; anti-LMWH effect in citrate compared with plasma [2]: neutralize the same amount of Lovenox® in citrate and plasma; Lovenox/LMWH neutralization compared with protamine [2]: more effective than protamine; Kd [3]: 57 ± 23 nM
2 | VLVL(ARKKAAKA)3ARKKCAKA (VLVLARKKAAKAARKKAAKAARKKAAKAARKKCAKA; Fragment) | 0.043 U/ml | 0.335 U/ml | 0.008 U/ml | 0.172 U/ml | 0.110 U/ml | 0.329 U/ml | 0.200 U/ml | 0.184 U/ml | 0.240 U/ml | most effective neutralizing agents | 0.080 ± .036 U/ml | 0.071 ± 0.056 U/ml | 0.077 ± 0.055 U/ml | 0.091 ± .053 U/ml | 0.218 ± .026 U/ml | 0.233 ± 0.025 U/ml | 0.217 ± 0.154 U/ml | 0.432 ± .086 U/ml | 0.365 ± .076 U/ml | 0.290 ± 0.047 U/ml | Lovenox ® Neutralized ([2]; 12 μg/ml Peptide, C Plasma): 0.380 ± 0.045 U/ml; Lovenox ® Neutralized ([2]; 12 μg/ml Peptide, Citrate): 0.484 ± .012 U/ml; anti-Factor Xa activity of LMWH neutralized [2]: about 0.4 U/ml; Lovenox ® Neutralized ([2]; 60 μg/ml Peptide, A Plasma): 0.483 ± .070 U/ml; Lovenox ® Neutralized ([2]; 60 μg/ml Peptide, B Plasma): 0.456 ± 0.029 U/ml; Lovenox ® Neutralized ([2]; 60 μg/ml Peptide, C Plasma): 0.461 ± 0.05 U/ml; Lovenox ® Neutralized ([2]; 60 μg/ml Peptide, Citrate): 0.550 ± .027 U/ml; Lovenox ® Neutralized ([2]; 120 μg/ml Peptide, A Plasma): 0.674 ± .105 U/ml; Lovenox ® Neutralized ([2]; 120 μg/ml Peptide, B Plasma): 0.515 ± 0.005 U/ml; Lovenox ® Neutralized ([2]; 120 μg/ml Peptide, C Plasma): 0.483 ± 0.044 U/ml; Lovenox ® Neutralized ([2]; 120 μg/ml Peptide, Citrate): 0.533 ± .017 U/ml; anti-LMWH effect in citrate compared with plasma [2]: greater anti-LMWH effect in citrate than in plasma; Lovenox/LMWH neutralization compared with protamine [2]: more effective than protamine; Kd [3]: 48 ± 11 nM

Reference: US7259140B2, “Heparin-binding peptides and uses thereof” (Thomas Jefferson University, priority 2003, dated 2007)
